Test results published in the supplement of paper PMC10883282.

Tests used:
Test in all cases: relative viability vs DMSO control (72 h) (fraction); higher = more viable cells
SW684 = test system: SW684
In short: (§1)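 Sarcoma cell lines were seeded in 384-well plates at densities chosen for 80–90% confluence, then 24 h later given 2.5 µl of serially diluted compound drawn from source plates spanning 10 mM to 0.0002 mM. They were held 72 h at 37 °C, 5% CO2, with 0.1% DMSO vehicle and a 5 µM positive control included. Relative viability was read with ATPLite as percent growth and averaged over up to triplicate wells. Rescaling placed full at 1 and none at 0.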

A204 = test system: A204
In short: as §1

SK-ES-1 = test system: SK-ES-1
In short: as §1

G401 = test system: G401
In short: as §1

SK-LMS-1 = test system: SK-LMS-1
In short: as §1

HS729 = test system: HS729
In short: as §1

SW872 = test system: SW872
In short: as §1

MES-SA = test system: MES-SA
In short: as §1

SYO-1 = test system: SYO-1
In short: as §1

SW1353 = test system: SW1353
In short: as §1

SW982 = test system: SW982
In short: as §1

KHOS-240S = test system: KHOS-240S
In short: as §1

CNC(=O)c1ccccc1Sc1ccc2c(/C=C/c3ccccn3)n[nH]c2c1 [Axitinib]
Conditions | relative viability
A204, 0.00017 µM | 1.04
A204, 0.00051 µM | 1.07
A204, 0.00152 µM | 1.03
A204, 0.00457 µM | 0.942
A204, 0.01372 µM | 0.77
A204, 0.04115 µM | 0.484
A204, 0.1235 µM | 0.405
A204, 0.3704 µM | 0.359
A204, 1.111 µM | 0.289
A204, 3.333 µM | 0.159
A204, 10 µM | 0.0338
G401, 0.00017 µM | 1.04
G401, 0.00051 µM | 1.04
G401, 0.00152 µM | 1.02
G401, 0.00457 µM | 1.01
G401, 0.01372 µM | 0.979
G401, 0.04115 µM | 0.963
G401, 0.1235 µM | 0.942
G401, 0.3704 µM | 0.854
G401, 1.111 µM | 0.806
G401, 3.333 µM | 0.456
G401, 10 µM | 0.0633
HS729, 0.00017 µM | 1.09
HS729, 0.00051 µM | 1.03
HS729, 0.00152 µM | 1.04
HS729, 0.00457 µM | 0.987
HS729, 0.01372 µM | 0.909
HS729, 0.04115 µM | 0.916
HS729, 0.1235 µM | 0.929
HS729, 0.3704 µM | 0.861
HS729, 1.111 µM | 0.698
HS729, 3.333 µM | 0.271
HS729, 10 µM | 0.111
KHOS-240S, 0.00017 µM | 1.05
KHOS-240S, 0.00051 µM | 1.02
KHOS-240S, 0.00152 µM | 1.04
KHOS-240S, 0.00457 µM | 1.05
KHOS-240S, 0.01372 µM | 1.02
KHOS-240S, 0.04115 µM | 1.01
KHOS-240S, 0.1235 µM | 0.964
KHOS-240S, 0.3704 µM | 0.802
KHOS-240S, 1.111 µM | 0.791
KHOS-240S, 3.333 µM | 0.495
KHOS-240S, 10 µM | 0.214
MES-SA, 0.00017 µM | 0.995
MES-SA, 0.00051 µM | 0.9681
MES-SA, 0.00152 µM | 0.978
MES-SA, 0.00457 µM | 0.977
MES-SA, 0.01372 µM | 0.967
MES-SA, 0.04115 µM | 0.949
MES-SA, 0.1235 µM | 0.951
MES-SA, 0.3704 µM | 0.785
MES-SA, 1.111 µM | 0.825
MES-SA, 3.333 µM | 0.257
MES-SA, 10 µM | 0.056
SK-ES-1, 0.00017 µM | 0.9896
SK-ES-1, 0.00051 µM | 1.06
SK-ES-1, 0.00152 µM | 1.03
SK-ES-1, 0.00457 µM | 1.02
SK-ES-1, 0.01372 µM | 1.01
SK-ES-1, 0.04115 µM | 0.969
SK-ES-1, 0.1235 µM | 0.943
SK-ES-1, 0.3704 µM | 0.829
SK-ES-1, 1.111 µM | 0.837
SK-ES-1, 3.333 µM | 0.499
SK-ES-1, 10 µM | 0.0154
SK-LMS-1, 0.00017 µM | 1.11
SK-LMS-1, 0.00051 µM | 1.14
SK-LMS-1, 0.00152 µM | 1.12
SK-LMS-1, 0.00457 µM | 1.09
SK-LMS-1, 0.01372 µM | 1.1
SK-LMS-1, 0.04115 µM | 1.09
SK-LMS-1, 0.1235 µM | 1.17
SK-LMS-1, 0.3704 µM | 1.17
SK-LMS-1, 1.111 µM | 1.18
SK-LMS-1, 3.333 µM | 1.13
SK-LMS-1, 10 µM | 0.55
SW684, 0.00017 µM | 1.17
SW684, 0.00051 µM | 1.17
SW684, 0.00152 µM | 1.21
SW684, 0.00457 µM | 1.188
SW684, 0.01372 µM | 1.19
SW684, 0.04115 µM | 1.15
SW684, 0.1235 µM | 1.14
SW684, 0.3704 µM | 1.12
SW684, 1.111 µM | 1.14
SW684, 3.333 µM | 0.978
SW684, 10 µM | 0.493
SW872, 0.00017 µM | 1.08
SW872, 0.00051 µM | 1.04
SW872, 0.00152 µM | 1.06
SW872, 0.00457 µM | 1.08
SW872, 0.01372 µM | 1.05
SW872, 0.04115 µM | 1.03
SW872, 0.1235 µM | 0.981
SW872, 0.3704 µM | 0.902
SW872, 1.111 µM | 0.779
SW872, 3.333 µM | 0.511
SW872, 10 µM | 0.213
SW982, 0.00017 µM | 0.998
SW982, 0.00051 µM | 0.997
SW982, 0.00152 µM | 1
SW982, 0.00457 µM | 1.02
SW982, 0.01372 µM | 0.991
SW982, 0.04115 µM | 1.015
SW982, 0.1235 µM | 0.9984
SW982, 0.3704 µM | 0.96
SW982, 1.111 µM | 0.922
SW982, 3.333 µM | 0.409
SW982, 10 µM | 0.0993
SW1353, 0.00017 µM | 1.09
SW1353, 0.00051 µM | 1.1
SW1353, 0.00152 µM | 1.05
SW1353, 0.00457 µM | 1.04
SW1353, 0.01372 µM | 1.04
SW1353, 0.04115 µM | 1.01
SW1353, 0.1235 µM | 1.02
SW1353, 0.3704 µM | 0.908
SW1353, 1.111 µM | 0.94
SW1353, 3.333 µM | 0.789
SW1353, 10 µM | 0.288
SYO-1, 0.00017 µM | 1
SYO-1, 0.00051 µM | 0.973
SYO-1, 0.00152 µM | 0.9673
SYO-1, 0.00457 µM | 0.913
SYO-1, 0.01372 µM | 0.841
SYO-1, 0.04115 µM | 0.742
SYO-1, 0.1235 µM | 0.662
SYO-1, 0.3704 µM | 0.485
SYO-1, 1.111 µM | 0.422
SYO-1, 3.333 µM | 0.141
SYO-1, 10 µM | 0.0669
